The values that follow are results of earlier work, collected in patent publication US20150272920A1, “METHOD FOR TREATING OBESITY WITH ANTI-OBESITY FORMULATIONS AND OMEGA 3 FATTY ACIDS FOR THE REDUCTION OF BODY WEIGHT IN CARDIOVASCULAR DISEASE PATIENTS (CVD) AND DIABETICS” (PIVOTAL THERAPEUTICS INC., priority 2014, published 2015).

The target of this data set is CB1R (Homo sapiens, UniProt P21554). Particulars: in vivo.
Chain of CB1R (P21554 whole entry): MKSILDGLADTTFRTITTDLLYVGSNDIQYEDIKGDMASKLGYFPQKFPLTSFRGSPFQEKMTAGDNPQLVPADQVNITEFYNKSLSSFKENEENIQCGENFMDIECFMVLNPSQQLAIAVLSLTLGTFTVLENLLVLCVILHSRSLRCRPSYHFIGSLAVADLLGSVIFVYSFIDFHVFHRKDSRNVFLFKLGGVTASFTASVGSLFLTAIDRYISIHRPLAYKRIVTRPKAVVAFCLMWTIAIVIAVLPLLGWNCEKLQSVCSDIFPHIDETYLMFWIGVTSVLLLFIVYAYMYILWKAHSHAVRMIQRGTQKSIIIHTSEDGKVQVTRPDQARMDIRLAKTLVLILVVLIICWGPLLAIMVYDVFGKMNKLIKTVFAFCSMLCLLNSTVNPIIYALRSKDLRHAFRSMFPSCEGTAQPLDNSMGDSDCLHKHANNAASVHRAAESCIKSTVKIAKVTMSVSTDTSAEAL

For the molecule `CCNC1(C(N)=O)CCN(c2ncnc3c2nc(-c2ccccc2Cl)n3-c2ccc(Cl)cc2)CC1.Cl` [CP-945,598], the “Reason for failure of phase III clinical trials (adverse reactions)” value is “psychiatric adverse reactions, including severe depression and anxiety”.
